Results published in patent US20060069132A1, “Azolecarboxamide herbicides” (priority 2004, published 2006).

What was measured:
[1] = tested on: barnyardgrass; assay: Test B pre-/postemergence herbicide test; assay type: in vivo, Echinochloa crus-galli; conditions: for Plant response rating, Barnyardgrass: preemergence; for Barnyardgrass plant response rating: postemergence, visual rating, scale 0 (no effect) to 100 (complete control)
In short: (§1)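 Formulation: non-phytotoxic solvent mix with surfactant. Timing: preemergence on seed and postemergence on 2–18 cm plants, applied concurrently. Readout after 13–15 d greenhouse: visual 0–100 control rating against controls.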

[2] = tested on: Surinam grass; assay: Test B pre-/postemergence herbicide test; assay type: in vivo, Urochloa decumbens; conditions: for Plant response rating, Surinam Grass: preemergence; for Surinam Grass plant response rating: postemergence, visual rating, scale 0 (no effect) to 100 (complete control)
In short: (§2)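 Response was scored visually 13 to 15 days after treatment against untreated greenhouse controls, 0 meaning no effect and 100 complete control. Formulations (solvent mixture plus surfactant) went onto soil after planting, onto foliage of 1- to 4-leaf plants, and onto 2-leaf plants in a flooded paddy set including rice and barnyardgrass.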

[3] = tested on: cocklebur; assay: Test B pre-/postemergence herbicide test; assay type: in vivo, Xanthium strumarium; conditions: for Plant response rating, Cocklebur: preemergence; for Cocklebur plant response rating: postemergence, visual rating, scale 0 (no effect) to 100 (complete control)
In short: as §1

[4] = tested on: corn; assay: Test B pre-/postemergence herbicide test; assay type: in vivo, Zea mays; conditions: for Plant response rating, Corn: preemergence; for Corn plant response rating: postemergence, visual rating, scale 0 (no effect) to 100 (complete control)
In short: as §2

[5] = tested on: large crabgrass; assay: Test B pre-/postemergence herbicide test; assay type: in vivo, Digitaria sanguinalis; conditions: for Plant response rating, Crabgrass, Large: preemergence; for Crabgrass, Large plant response rating: postemergence, visual rating, scale 0 (no effect) to 100 (complete control)
In short: as §2

[6] = tested on: giant foxtail; assay: Test B pre-/postemergence herbicide test; assay type: in vivo, Setaria faberi; conditions: for Plant response rating, Foxtail, Giant: preemergence; for Foxtail, Giant plant response rating: postemergence, visual rating, scale 0 (no effect) to 100 (complete control)
In short: as §2

[7] = tested on: lambsquarters; assay: Test B pre-/postemergence herbicide test; assay type: in vivo, Chenopodium album; conditions: for Plant response rating, Lambsquarters: preemergence; for Lambsquarters plant response rating: postemergence, visual rating, scale 0 (no effect) to 100 (complete control)
In short: as §2

[8] = tested on: morningglory; assay: Test B pre-/postemergence herbicide test; assay type: in vivo, Ipomoea coccinea; conditions: for Plant response rating, Morningglory: preemergence; for Morningglory plant response rating: postemergence, visual rating, scale 0 (no effect) to 100 (complete control)
In short: as §1

[9] = tested on: pigweed; assay: Test B pre-/postemergence herbicide test; assay type: in vivo, Amaranthus retroflexus; conditions: for Plant response rating, Pigweed: preemergence; for Pigweed plant response rating: postemergence, visual rating, scale 0 (no effect) to 100 (complete control)
In short: as §2

[10] = tested on: velvetleaf; assay: Test B pre-/postemergence herbicide test; assay type: in vivo, Abutilon theophrasti; conditions: for Plant response rating, Velvetleaf: preemergence; for Velvetleaf plant response rating: postemergence, visual rating, scale 0 (no effect) to 100 (complete control)
In short: as §2

[11] = tested on: blackgrass; assay: Test B postemergence herbicide test; assay type: in vivo, Alopecurus myosuroides; conditions: postemergence, visual rating, scale 0 (no effect) to 100 (complete control)
In short: (§3)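 Scale 0–100: zero equals no visible effect, 100 complete control, judged by eye relative to controls. Timing: 13 to 15 days in greenhouse post-treatment. Growth stage at spraying: two leaves (paddy) or one to four leaves, 2–18 cm (postemergence).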

[12] = tested on: wheat; assay: Test B postemergence herbicide test; assay type: in vivo, Triticum aestivum; set-up: key to Wheat plant response rating: 0 = no effect, 100 = complete control; conditions: postemergence, visual rating, scale 0 (no effect) to 100 (complete control)
In short: (§4)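 Greenhouse test; postemergence application to plants at 1–4 leaves (2–18 cm); paddy species at 2 leaves; evaluated visually vs controls at 13–15 days; scale 0–100 (100 = complete control).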

[13] = tested on: wild oat; assay: Test B postemergence herbicide test; assay type: in vivo, Avena fatua; conditions: postemergence, visual rating, scale 0 (no effect) to 100 (complete control)
In short: as §4

[14] = tested on: rice; assay: Test B flooded paddy test; assay type: in vivo, Oryza sativa; conditions: 1000 g ai/ha, visual rating, scale 0 to 100 (0 no effect, 100 complete control), 13 to 15 days
In short: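 Postemergence plants were sprayed with formulated test chemicals at 2 to 18 cm height (1- to 4-leaf stage); paddy species were grown to the 2-leaf stage. After 13 to 15 days in a greenhouse, injury was rated visually against untreated controls on a 0–100 scale (0 = no effect, 100 = complete control).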

[15] = tested on: small flower umbrella sedge; assay: Test B flooded paddy test; assay type: in vivo, Cyperus difformis; conditions: 1000 g ai/ha, visual rating, scale 0 to 100 (0 no effect, 100 complete control), 13 to 15 days
In short: as §3

[16] = tested on: ducksalad; assay: Test B flooded paddy test; assay type: in vivo, Heteranthera limosa; conditions: 1000 g ai/ha, visual rating, scale 0 to 100 (0 no effect, 100 complete control), 13 to 15 days
In short: as §3

[17] = tested on: barnyardgrass; assay: Test B flooded paddy test; assay type: in vivo, Echinochloa crus-galli; conditions: 1000 g ai/ha, visual rating, scale 0 to 100 (0 no effect, 100 complete control), 13 to 15 days
In short: as §3

[18] = tested on: rice; assay: Test C flooded paddy test; assay type: in vivo, Oryza sativa
In short: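 Injury scored visually against controls on a 0 (no effect) to 100 (complete control) scale, 12 to 14 days after treatment in greenhouse. Flooded paddy plants treated at 2-leaf stage; postemergence plants at 1- to 4-leaf stage, 2 to 18 cm tall.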

[19] = tested on: smallflower umbrella sedge; assay: Test C flooded paddy test; assay type: in vivo, Cyperus difformis
[20] = tested on: ducksalad; assay: Test C flooded paddy test; assay type: in vivo, Heteranthera limosa
[21] = tested on: barnyardgrass; assay: Test C flooded paddy test; assay type: in vivo, Echinochloa crus-galli
In short: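 Plants were grown to the 1- to 4-leaf stage (2–18 cm) and then treated postemergence, or grown to the 2-leaf stage for the flooded paddy test. They were held in a greenhouse for 12 to 14 days and then scored by eye against controls, where 0 is no effect and 100 is complete control.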

[22] = 500 g ai/ha, visual rating 0-100, 0 no effect, 100 complete control
[23] = 125 g ai/ha, 0 to 100 scale, 0 is no effect, 100 is complete control
[24] = 62 g ai/ha, scale 0 to 100 (0 no effect, 100 complete control)
[25] = 125 g ai/ha, scale 0 to 100 (0 no effect, 100 complete control)
[26] = 250 g ai/ha, scale of 0 to 100, 0 is no effect, 100 is complete control
[27] = 500 g ai/ha, visual rating after 12 to 14 days, scale 0 to 100 (0 no effect, 100 complete control)

CC(=O)c1cccc(NC(=O)c2cc(C(C)(C)C)nn2CC(F)(F)F)c1 [Compound 126]
80: Sedge, Umbrella plant response rating [15] | Ducksalad plant response rating [16]
30: Barnyardgrass plant response rating ([1]; 500 g ai/ha) | Plant response rating, Crabgrass, Large [5, 22] | Foxtail, Giant plant response rating ([6]; 500 g ai/ha) | Morningglory plant response rating ([8]; 500 g ai/ha) | Oat, Wild plant response rating ([13]; 125 g ai/ha) | Plant response rating, Ducksalad [20, 27]
25: Ducksalad plant response rating [20, 26] | Plant response rating, Barnyardgrass [21, 27]
10: Barnyardgrass plant response rating [17] | Ducksalad plant response rating [20, 25]
0: Barnyardgrass plant response rating ([1]; 125 g ai/ha) | Plant response rating, Surinam Grass [2, 23] | Plant response rating, Cocklebur [3, 22] | Plant response rating, Cocklebur [3, 23] | Plant response rating, Corn [4, 22] | Corn plant response rating ([4]; 125 g ai/ha) | Plant response rating, Corn [4, 23] | Plant response rating, Crabgrass, Large [5, 23] | Plant response rating, Foxtail, Giant [6, 22] | Plant response rating, Foxtail, Giant [6, 23] | Lambsquarters plant response rating ([7]; 125 g ai/ha) | Plant response rating, Lambsquarters [7, 23] | Morningglory plant response rating ([8]; 125 g ai/ha) | Plant response rating, Morningglory [8, 23] | Plant response rating, Pigweed [9, 23] | Velvetleaf plant response rating ([10]; 125 g ai/ha) | Plant response rating, Velvetleaf [10, 23] | Blackgrass plant response rating ([11]; 125 g ai/ha) | Blackgrass plant response rating ([11]; 500 g ai/ha) | Wheat plant response rating ([12]; 125 g ai/ha) | Wheat plant response rating ([12]; 500 g ai/ha) | Rice plant response rating [18, 24] | Rice plant response rating [18, 25] | Rice plant response rating [18, 26] | Plant response rating, Rice [18, 27] | Sedge, Umbrella plant response rating [19, 24] | Ducksalad plant response rating [20, 24] | Barnyardgrass plant response rating [21, 24] | Barnyardgrass plant response rating ([21]; 125 g ai/ha, scale of 0 to 100, 0 is no effect, 100 is complete control)
20: Plant response rating, Surinam Grass [2, 22] | Surinam Grass plant response rating ([2]; 125 g ai/ha) | Surinam Grass plant response rating ([2]; 500 g ai/ha) | Corn plant response rating ([4]; 500 g ai/ha) | Foxtail, Giant plant response rating ([6]; 125 g ai/ha) | Plant response rating, Morningglory [8, 22] | Plant response rating, Velvetleaf [10, 22] | Rice plant response rating [14] | Sedge, Umbrella plant response rating [19, 25] | Sedge, Umbrella plant response rating [19, 26] | Barnyardgrass plant response rating [21, 26]
90: Plant response rating, Lambsquarters [7, 22]
60: Plant response rating, Barnyardgrass [1, 22] | Lambsquarters plant response rating ([7]; 500 g ai/ha)
70: Plant response rating, Pigweed [9, 22]
100: Cocklebur plant response rating ([3]; 500 g ai/ha)
50: Cocklebur plant response rating ([3]; 125 g ai/ha) | Oat, Wild plant response rating ([13]; 500 g ai/ha) | Plant response rating, Sedge, Umbrella [19, 27]
40: Plant response rating, Barnyardgrass [1, 23] | Crabgrass, Large plant response rating ([5]; 125 g ai/ha) | Crabgrass, Large plant response rating ([5]; 500 g ai/ha) | Pigweed plant response rating ([9]; 125 g ai/ha) | Pigweed plant response rating ([9]; 500 g ai/ha) | Velvetleaf plant response rating ([10]; 500 g ai/ha)
